# Test results: PMC3119659, “Ligand Activation of the Prokaryotic Pentameric Ligand-Gated Ion Channel ELIC” (PLoS Biology, 2011)
# pEC50: −log10 of the molar value. Entries after “also recorded” stand apart in the source; their conditions may differ. Read-outs that look alike come from different tables or passages of the source.
# Key:
# [1] = biological target: T1, ELIC (Dickeya chrysanthemi, UniProt P0C7B7); experiment: cell-based; assay type: cell-based, Erwinia chrysanthemi
# T1 construct: expressed in transfected cells; host or cells: Xenopus laevis oocytes (cRNA injection, pTLN vector)
# T1 sequence (P0C7B7 whole entry): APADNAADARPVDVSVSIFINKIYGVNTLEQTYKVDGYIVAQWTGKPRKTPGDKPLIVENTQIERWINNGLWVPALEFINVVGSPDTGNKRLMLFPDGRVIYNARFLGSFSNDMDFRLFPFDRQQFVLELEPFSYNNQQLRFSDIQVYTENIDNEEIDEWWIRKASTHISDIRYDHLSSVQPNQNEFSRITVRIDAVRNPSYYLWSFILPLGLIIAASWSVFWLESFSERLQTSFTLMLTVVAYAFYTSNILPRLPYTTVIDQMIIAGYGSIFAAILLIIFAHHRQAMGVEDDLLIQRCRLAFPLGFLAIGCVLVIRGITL
# From the text: To identify ligands that activate ELIC we have expressed the protein in Xenopus laevis oocytes and investigated the response to potential agonists by the two-electrode voltage-clamp technique. Based on the volume and chemical properties of the proposed ligand binding region and the presence of positively charged ions bound to this site, we reasoned that parts of the agonists might have a cationic character. […] Our library included different natural products such as amino acids and their derivatives, metabolites, and related synthetic substances (Figure S3A).
# Constructs containing the gene of either the WT channel or point mutants preceded by the signal sequence of the chicken α7nAchR were cloned into the pTLN vector for expression in X. laevis oocytes. After linearization of the plasmid DNA by MluI, capped complementary RNA was transcribed with the mMessage mMachine kit (Ambion) and purified with the RNeasy kit (Qiagen). For expression, 1–50 ng of RNA was injected into defolliculated oocytes. Two-electrode voltage clamp measurements were performed one day after injection at 20°C (OC-725B, Warner Instrument Corp.). […] Cysteamine containing solutions were supplemented with 1 mM DTT.
# [2] = biological target: T2, ELIC R91A (Dickeya chrysanthemi, UniProt P0C7B7, R91A); experiment: Two-electrode voltage clamp of ELIC point mutant R91A in oocytes; assay type: cell-based, Erwinia chrysanthemi; details: for n (Hill coefficient) / pEC50: mutant R91A; for fold decrease of the EC50: mutant R91A compared with WT; for pEC50: read-out: EC50 of activation
# T2 construct: expressed in transfected cells; host or cells: Xenopus laevis oocytes (cRNA injection, pTLN vector)
# T2 sequence (P0C7B7 whole entry R91A): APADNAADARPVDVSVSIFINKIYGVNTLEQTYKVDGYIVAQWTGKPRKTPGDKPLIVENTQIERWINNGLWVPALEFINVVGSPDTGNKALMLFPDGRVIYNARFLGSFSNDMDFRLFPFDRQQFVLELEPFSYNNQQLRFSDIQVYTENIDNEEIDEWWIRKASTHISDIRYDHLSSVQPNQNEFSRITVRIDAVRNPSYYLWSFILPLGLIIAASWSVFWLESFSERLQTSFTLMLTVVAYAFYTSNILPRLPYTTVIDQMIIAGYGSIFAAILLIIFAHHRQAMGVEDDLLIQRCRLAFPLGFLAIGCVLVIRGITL
# From the text: (§1) To investigate the role of residues surrounding the bound ligand for channel activation, we have mutated single residues to alanine and we have measured activation with the two-electrode voltage-clamp technique (Table 2). For many mutants there was no response to the addition of cysteamine. This was the case for all investigated residues of the principal site, such as Glu77 and Glu131, that may interact with the primary amino group and hydrophobic and aromatic residues (i.e., Phe187, Phe133, Tyr174, Ile79) that surround the aliphatic carbon atoms of the ligand. The effect of mutations on the complementary side, in contrast, was diverse and in some cases less drastic. The mutations of Phe19 on β-1 and Val40 on β-2 shifted the activation towards higher agonist concentrations (Figure 4B).
# (§2) Constructs containing the gene of either the WT channel or point mutants preceded by the signal sequence of the chicken α7nAchR were cloned into the pTLN vector for expression in X. laevis oocytes. After linearization of the plasmid DNA by MluI, capped complementary RNA was transcribed with the mMessage mMachine kit (Ambion) and purified with the RNeasy kit (Qiagen). For expression, 1–50 ng of RNA was injected into defolliculated oocytes. Two-electrode voltage clamp measurements were performed one day after injection at 20°C (OC-725B, Warner Instrument Corp.). Currents were recorded in bath solutions containing 10 mM HEPES (pH 7), 130 mM NaCl, and the respective ligands. Cysteamine containing solutions were supplemented with 1 mM DTT.
# [3] = biological target: T3, ELIC V40A (Dickeya chrysanthemi, UniProt P0C7B7, V40A); experiment: Two-electrode voltage clamp of ELIC point mutant V40A in oocytes; assay type: cell-based, Erwinia chrysanthemi; details: for pEC50: read-out: EC50 of activation
# T3 construct: expressed in transfected cells; host or cells: Xenopus laevis oocytes (cRNA injection, pTLN vector)
# T3 sequence (P0C7B7 whole entry V40A): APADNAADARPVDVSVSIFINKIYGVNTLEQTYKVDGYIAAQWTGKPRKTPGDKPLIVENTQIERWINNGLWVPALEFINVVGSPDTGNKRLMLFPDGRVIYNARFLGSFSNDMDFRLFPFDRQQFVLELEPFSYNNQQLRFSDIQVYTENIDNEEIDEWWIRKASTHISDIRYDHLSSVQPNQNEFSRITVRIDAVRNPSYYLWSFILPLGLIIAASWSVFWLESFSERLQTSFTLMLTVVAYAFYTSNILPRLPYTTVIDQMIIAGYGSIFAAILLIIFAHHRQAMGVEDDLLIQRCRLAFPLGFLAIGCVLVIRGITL
# From the text: as §1, §2
# [4] = biological target: T4, ELIC F19A (Dickeya chrysanthemi, UniProt P0C7B7, F19A); experiment: Two-electrode voltage clamp of ELIC point mutant F19A in oocytes; assay type: cell-based, Erwinia chrysanthemi; details: read-out: EC50 of activation
# T4 construct: expressed in transfected cells; host or cells: Xenopus laevis oocytes (cRNA injection, pTLN vector)
# T4 sequence (P0C7B7 whole entry F19A): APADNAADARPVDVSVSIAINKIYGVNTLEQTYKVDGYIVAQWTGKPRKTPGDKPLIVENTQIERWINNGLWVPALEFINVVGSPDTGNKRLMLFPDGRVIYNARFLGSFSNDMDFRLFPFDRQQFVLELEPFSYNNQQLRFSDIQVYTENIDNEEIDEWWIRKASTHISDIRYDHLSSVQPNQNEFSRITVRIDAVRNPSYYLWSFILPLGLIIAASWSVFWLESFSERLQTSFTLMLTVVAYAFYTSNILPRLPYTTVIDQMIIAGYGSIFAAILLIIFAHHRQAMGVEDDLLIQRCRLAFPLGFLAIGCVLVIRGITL
# From the text: as §1
# as §2, with “Two-electrode voltage clamp measurements were performed one day after injection at 20°C (OC-725B, Warner Instrument Corp.).” left out, “Cysteamine containing solutions were supplemented with 1 mM DTT.” left out
# [5] = biological target: T5, ELIC F246A (Dickeya chrysanthemi, UniProt P0C7B7, F246A); experiment: Two-electrode voltage clamp of ELIC pore mutant F246A in oocytes; assay type: cell-based, Erwinia chrysanthemi
# T5 construct: expressed in transfected cells; host or cells: Xenopus laevis oocytes (cRNA injection, pTLN vector)
# T5 sequence (P0C7B7 whole entry F246A): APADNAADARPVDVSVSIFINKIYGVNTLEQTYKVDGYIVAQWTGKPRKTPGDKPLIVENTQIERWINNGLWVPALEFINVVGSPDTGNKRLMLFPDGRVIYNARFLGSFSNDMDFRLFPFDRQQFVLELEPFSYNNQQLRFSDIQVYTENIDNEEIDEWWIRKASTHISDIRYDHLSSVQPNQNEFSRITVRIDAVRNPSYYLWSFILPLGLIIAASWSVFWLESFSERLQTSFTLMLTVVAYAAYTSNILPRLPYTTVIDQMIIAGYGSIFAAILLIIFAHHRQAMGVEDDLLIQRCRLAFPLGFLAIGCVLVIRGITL
# From the text: In contrast to the extracellular domain, the pore of ELIC resembles cation selective members of the family that include nAChRs, serotonin receptors, and the prokaryotic channel GLIC (Figure S1G). In cation selective pLGICs, three layers of hydrophobic side-chains provide an overall apolar character to the extracellular half of the pore region while the following two layers of polar residues and a layer of negatively charged residues render the intracellular half hydrophilic,[30]. […] To investigate the role of this aromatic group for channel opening, we have mutated it to alanine and studied the mutant by X-ray crystallography and electrophysiology. […] This shift is due to a mutation of a residue located remote from the ligand binding site and thus likely reflects a decreased efficacy of the channel.
# as §2, with “Two-electrode voltage clamp measurements were performed one day after injection at 20°C (OC-725B, Warner Instrument Corp.).” left out, “Cysteamine containing solutions were supplemented with 1 mM DTT.” left out
# [6] = biological target: T1, ELIC; experiment: Patch clamp of excised outside-out patches, fast solution exchange (activation and deactivation kinetics); assay type: cell-based, Erwinia chrysanthemi; details: -60 mV, n = 19, errors s.d., upper limit
# Experimental: We have thus used this molecule as an agonist in most subsequent experiments. […] Stable currents over a period of seconds were obtained upon addition of high micromolar concentrations of cysteamine to the extracellular medium (Figure 3A). At longer incubations with the ligand, however, the currents decayed, which is indicative for a slow desensitization of the channel (Figure S4A). […] To follow the time-course of activation and deactivation, we have investigated excised outside-out patches in response to fast solution exchange. A similar phenotype of currents as previously seen in two-electrode voltage clamp recordings, although with faster kinetics of desensitization, was also observed for macroscopic currents in a patch clamp experiment (Figure 3B, Figure S4B). At 5 mM cysteamine, channel activation and deactivation can be approximated by exponential functions with time constants in the ms range (τact = 20±5 ms, n = 19, τdeact = 53±7 ms, n = 19, all errors are s.d.). […]
# Membrane patches of X. laevis oocytes were recorded in the excised outside-out configuration 2–3 d after injection of mRNA with an Axopatch 200B amplifier (Axon Instruments) at 20°C. Data were sampled at 100 µs, filtered with 1,000 Hz, and analyzed using Clampfit (Axon Instruments, Inc.). […]
# [7] = Protonation of the sulfhydryl group of cysteamine; assay type: physicochemical; details: at the pH of the recording solution
# [8] = biological target: T6, ELIC Glu77 mutated to alanine (Dickeya chrysanthemi, UniProt P0C7B7, E77A); experiment: Two-electrode voltage clamp of ELIC Glu77 alanine mutant; assay type: cell-based, Erwinia chrysanthemi
# T6 construct: expressed in transfected cells; host or cells: Xenopus laevis oocytes (cRNA injection, pTLN vector)
# T6 sequence (P0C7B7 whole entry E77A): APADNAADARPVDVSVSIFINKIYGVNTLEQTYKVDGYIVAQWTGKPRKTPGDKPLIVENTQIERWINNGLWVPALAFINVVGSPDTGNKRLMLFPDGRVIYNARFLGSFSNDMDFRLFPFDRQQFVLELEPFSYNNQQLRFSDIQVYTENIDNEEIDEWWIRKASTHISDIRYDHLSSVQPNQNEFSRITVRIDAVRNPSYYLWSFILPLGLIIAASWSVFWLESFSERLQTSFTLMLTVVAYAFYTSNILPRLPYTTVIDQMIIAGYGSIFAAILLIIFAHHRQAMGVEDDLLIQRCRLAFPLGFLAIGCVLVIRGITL
# From the text: as §1
# as §2, with “Two-electrode voltage clamp measurements were performed one day after injection at 20°C (OC-725B, Warner Instrument Corp.).” left out, “Cysteamine containing solutions were supplemented with 1 mM DTT.” left out
# [9] = biological target: T7, ELIC Glu131 mutated to alanine (Dickeya chrysanthemi, UniProt P0C7B7, E131A); experiment: Two-electrode voltage clamp of ELIC Glu131 alanine mutant; assay type: cell-based, Erwinia chrysanthemi
# T7 construct: expressed in transfected cells; host or cells: Xenopus laevis oocytes (cRNA injection, pTLN vector)
# T7 sequence (P0C7B7 whole entry E131A): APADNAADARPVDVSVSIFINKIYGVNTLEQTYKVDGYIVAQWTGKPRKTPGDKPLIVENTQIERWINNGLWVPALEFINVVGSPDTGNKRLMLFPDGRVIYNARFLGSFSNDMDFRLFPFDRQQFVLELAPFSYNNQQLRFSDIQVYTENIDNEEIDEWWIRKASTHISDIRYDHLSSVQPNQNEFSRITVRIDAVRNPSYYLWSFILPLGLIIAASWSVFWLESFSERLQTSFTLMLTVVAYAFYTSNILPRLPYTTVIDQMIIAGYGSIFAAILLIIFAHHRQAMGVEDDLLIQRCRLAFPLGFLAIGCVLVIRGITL
# From the text: as §1
# as §2, with “Two-electrode voltage clamp measurements were performed one day after injection at 20°C (OC-725B, Warner Instrument Corp.).” left out, “Cysteamine containing solutions were supplemented with 1 mM DTT.” left out
# [10] = biological target: T8, ELIC Phe187 mutated to alanine (Dickeya chrysanthemi, UniProt P0C7B7, F187A); experiment: Two-electrode voltage clamp of ELIC Phe187 alanine mutant; assay type: cell-based, Erwinia chrysanthemi
# T8 construct: expressed in transfected cells; host or cells: Xenopus laevis oocytes (cRNA injection, pTLN vector)
# T8 sequence (P0C7B7 whole entry F187A): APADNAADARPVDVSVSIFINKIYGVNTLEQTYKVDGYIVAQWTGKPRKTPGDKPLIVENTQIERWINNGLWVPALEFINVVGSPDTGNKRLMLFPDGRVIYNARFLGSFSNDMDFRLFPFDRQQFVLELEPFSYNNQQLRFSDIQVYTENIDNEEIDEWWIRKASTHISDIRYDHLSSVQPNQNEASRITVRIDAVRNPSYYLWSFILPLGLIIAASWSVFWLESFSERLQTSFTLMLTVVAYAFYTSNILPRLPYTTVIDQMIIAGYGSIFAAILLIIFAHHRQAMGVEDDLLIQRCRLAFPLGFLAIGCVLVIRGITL
# From the text: as §1
# as §2, with “Two-electrode voltage clamp measurements were performed one day after injection at 20°C (OC-725B, Warner Instrument Corp.).” left out, “Cysteamine containing solutions were supplemented with 1 mM DTT.” left out
# [11] = biological target: T9, ELIC Phe133 mutated to alanine (Dickeya chrysanthemi, UniProt P0C7B7, F133A); experiment: Two-electrode voltage clamp of ELIC Phe133 alanine mutant; assay type: cell-based, Erwinia chrysanthemi
# T9 construct: expressed in transfected cells; host or cells: Xenopus laevis oocytes (cRNA injection, pTLN vector)
# T9 sequence (P0C7B7 whole entry F133A): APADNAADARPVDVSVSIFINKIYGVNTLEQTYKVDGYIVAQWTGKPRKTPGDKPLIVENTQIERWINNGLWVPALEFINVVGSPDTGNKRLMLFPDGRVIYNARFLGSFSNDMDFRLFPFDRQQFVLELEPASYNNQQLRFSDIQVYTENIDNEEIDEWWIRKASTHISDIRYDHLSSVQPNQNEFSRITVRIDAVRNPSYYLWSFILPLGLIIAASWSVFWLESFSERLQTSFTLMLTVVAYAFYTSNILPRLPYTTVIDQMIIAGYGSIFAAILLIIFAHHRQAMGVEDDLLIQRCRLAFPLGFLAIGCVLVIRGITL
# From the text: as §1
# as §2, with “Two-electrode voltage clamp measurements were performed one day after injection at 20°C (OC-725B, Warner Instrument Corp.).” left out, “Cysteamine containing solutions were supplemented with 1 mM DTT.” left out
# [12] = biological target: T10, ELIC Tyr174 mutated to alanine (Dickeya chrysanthemi, UniProt P0C7B7, Y174A); experiment: Two-electrode voltage clamp of ELIC Tyr174 alanine mutant; assay type: cell-based, Erwinia chrysanthemi
# T10 construct: expressed in transfected cells; host or cells: Xenopus laevis oocytes (cRNA injection, pTLN vector)
# T10 sequence (P0C7B7 whole entry Y174A): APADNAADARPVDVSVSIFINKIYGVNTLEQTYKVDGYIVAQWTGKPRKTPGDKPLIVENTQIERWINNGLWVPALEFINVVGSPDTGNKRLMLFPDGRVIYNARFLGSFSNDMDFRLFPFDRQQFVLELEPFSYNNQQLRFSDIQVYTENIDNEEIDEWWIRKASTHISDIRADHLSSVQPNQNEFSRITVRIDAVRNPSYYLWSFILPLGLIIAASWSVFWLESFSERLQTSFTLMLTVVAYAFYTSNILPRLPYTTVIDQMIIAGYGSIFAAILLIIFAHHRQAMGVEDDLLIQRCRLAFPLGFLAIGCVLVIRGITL
# From the text: as §1
# as §2, with “Two-electrode voltage clamp measurements were performed one day after injection at 20°C (OC-725B, Warner Instrument Corp.).” left out, “Cysteamine containing solutions were supplemented with 1 mM DTT.” left out
# [13] = biological target: T11, ELIC Ile79 mutated to alanine (Dickeya chrysanthemi, UniProt P0C7B7, I79A); experiment: Two-electrode voltage clamp of ELIC Ile79 alanine mutant; assay type: cell-based, Erwinia chrysanthemi
# T11 construct: expressed in transfected cells; host or cells: Xenopus laevis oocytes (cRNA injection, pTLN vector)
# T11 sequence (P0C7B7 whole entry I79A): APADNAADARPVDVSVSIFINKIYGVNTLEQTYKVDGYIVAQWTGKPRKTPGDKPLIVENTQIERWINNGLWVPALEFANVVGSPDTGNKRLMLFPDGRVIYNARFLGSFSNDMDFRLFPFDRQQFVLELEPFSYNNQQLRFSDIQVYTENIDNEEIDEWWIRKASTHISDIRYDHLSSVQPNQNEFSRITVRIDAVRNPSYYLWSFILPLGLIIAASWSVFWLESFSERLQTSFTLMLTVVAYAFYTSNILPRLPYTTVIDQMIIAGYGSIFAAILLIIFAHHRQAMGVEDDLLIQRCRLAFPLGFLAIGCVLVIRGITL
# From the text: as §1
# as §2, with “Two-electrode voltage clamp measurements were performed one day after injection at 20°C (OC-725B, Warner Instrument Corp.).” left out, “Cysteamine containing solutions were supplemented with 1 mM DTT.” left out
# [14] = biological target: T12, ELIC Asn103 mutated to alanine (Dickeya chrysanthemi, UniProt P0C7B7, N103A); experiment: Two-electrode voltage clamp of ELIC Asn103 alanine mutant; assay type: cell-based, Erwinia chrysanthemi
# T12 construct: expressed in transfected cells; host or cells: Xenopus laevis oocytes (cRNA injection, pTLN vector)
# T12 sequence (P0C7B7 whole entry N103A): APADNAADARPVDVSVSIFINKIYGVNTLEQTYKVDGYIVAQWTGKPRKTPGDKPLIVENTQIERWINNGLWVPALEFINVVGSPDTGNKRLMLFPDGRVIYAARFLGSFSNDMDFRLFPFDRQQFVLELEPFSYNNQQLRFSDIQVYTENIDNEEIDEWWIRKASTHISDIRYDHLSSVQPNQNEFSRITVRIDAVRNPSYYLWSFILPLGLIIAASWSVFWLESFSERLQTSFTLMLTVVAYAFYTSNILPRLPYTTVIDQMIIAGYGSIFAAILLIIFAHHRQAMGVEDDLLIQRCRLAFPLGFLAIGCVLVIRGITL
# From the text: as §1
# as §2, with “Two-electrode voltage clamp measurements were performed one day after injection at 20°C (OC-725B, Warner Instrument Corp.).” left out, “Cysteamine containing solutions were supplemented with 1 mM DTT.” left out
# [15] = ligand added to the extracellular solution, 10 mM, -60 mV, compared with 2 mM cysteamine
# [16] = WT, pH 7.0, two-electrode voltage clamp, -60 mV, fit to Hill equation, read-out: EC50 of activation of ELIC
# [17] = pH 7.0, averages and s.d. of six measurements
compound,measurement,setting,value
CCCCN [butylamine],activating current response of ELIC to the ligand,[1]; [15],weak
aminopropanol,n (Hill coefficient),"[1]; WT, pH 7.0",3.2
same,pEC50,[1]; [16],2.92
same,activating current response of ELIC to the ligand,[1]; [15],strong activation
same,Imax/Imax cysteamine,[1]; [17],1.00±0.014
same,n (Hill coefficient),[2],2.45
same,fold decrease of the EC50,[2],2 fold
same,pEC50,[2],3.29
same,pEC50,[3],< 2.00
diaminopropane,n (Hill coefficient),"[1]; WT, pH 8.0",3.1
same,pEC50,"[1]; WT, pH 8.0, two-electrode voltage clamp, -60 mV, read-out: EC50 of activation of ELIC",2.52
same,Imax/Imax cysteamine,"[1]; pH 9.0, averages and s.d. of six measurements",1.08±0.03
CCCN [aminopropane],n (Hill coefficient),"[1]; WT, pH 7.0",3.0
same,pEC50,[1]; [16],3.35
same,activating current response of ELIC to the ligand,[1]; [15],activate the channel
same,Imax/Imax cysteamine,[1]; [17],0.99±0.02
CC(C)N [isopropylamine],activating current response of ELIC to the ligand,[1]; [15],weak
NCCCCCN [cadaverine],activating current response of ELIC to the ligand,[1]; [15],not
NCCBr [bromoethylamine],n (Hill coefficient),"[1]; WT, pH 7.0",3.1
same,pEC50,[1]; [16],3.05
same,activating current response of ELIC to the ligand,[1]; [15],opening the channel
same,Imax/Imax cysteamine,[1]; [17],0.94±0.04
NCCCCN [putrescine],pEC50,[1],1.80
same,activating current response of ELIC to the ligand,[1],activate ELIC; also recorded: only observed at higher pH
same,n (Hill coefficient),[1]; pH 8,2.4
same,"n (Hill coefficient), concentration of monovalent putrescine",[1]; pH 8,2.4
same,Imax/Imax cysteamine,[1]; pH 9,1.03±0.07
NCCS [cysteamine],n (Hill coefficient),"[1]; WT, pH 7.0",2.7
same,pEC50,[1]; [16],3.44
same,pEC50,"[1]; WT, voltage-independent activation, read-out: EC50 of activation of ELIC",3.44
same,activating current response of ELIC to the ligand,[1]; [15],most efficacious; also recorded: strongest response at low ligand concentration
same,Imax/Imax cysteamine,[1]; [17],1
same,n (Hill coefficient),[2],2.6
same,fold decrease of the EC50,[2],4 fold
same,pEC50,[2],4.06
same,n (Hill coefficient),[3],2.6
same,pEC50,[3],2.72
same,pEC50,[4],< 2.00
same,n (Hill coefficient),[5],3.0
same,pEC50,[5]; read-out: EC50 of activation,2.59
same,"τact, time constant of channel activation",[6]; 5 mM cysteamine,20 ± 5 ms
same,"τdeact, time constant of channel deactivation",[6]; washout of 5 mM cysteamine,53 ± 7 ms
same,sulfhydryl groups protonated,[7],> 96%
same,response to the addition of the ligand,[8],no response
same,response to the addition of the ligand,[9],no response
same,response to the addition of the ligand,[10],no response
same,response to the addition of the ligand,[11],no response
same,response to the addition of the ligand,[12],no response
same,response to the addition of the ligand,[13],no response
same,response to the addition of the ligand,[14],did not show an activating response
